According to publication PMC8457121, “From Kinase Inhibitors to Multitarget Ligands as Powerful Drug Leads for Alzheimer's Disease using Protein‐Templated Synthesis” (Angewandte Chemie (International Ed. in English), 2021):

Columns and labels:
[1] = biological target: CK1δ (Homo sapiens, UniProt P48730); assay: CK1δ inhibition enzymatic assay (Kinase-Glo); assay type: biochemical; details: for inhibition at 10 µM: read-out: CK1δ enzyme inhibition at 10 μM
Method: CK1δ inhibition enzymatic assay. The “Kinase-Glo” Kit from Promega was used to screen compounds for activity against CK1δ Kinase-Glo assays were performed in assay buffer using black 96-well plates. In a typical assay, 10 μl of test compound (dissolved in DMSO at 1 mM concentration and diluted in advance in assay buffer to the desired concentration) 10 μl (16 ng) of enzyme were added to each well followed by 20 µl of assay buffer containing 0,1 % casein as substrate […]
exceed 1%. After 60-min incubation at 30°C the enzymatic reaction was stopped […]
with 40 μl of Kinase-Glo reagent. Glow-type luminescence was recorded after 10 min using a FLUOstar Optima (BMG Labtechnologies GmbH, Offenburg, Germany) multimode reader. The activity is proportional to the difference of the total and consumed ATP. The inhibitory activities were calculated on the basis of maximal activities measured in the absence of inhibitor. The IC50 was defined as the concentration of each compound that reduces a 50% the enzymatic activity with respect to that without inhibitors. […]
Ibérica SAU). Kinase-Glo Luminescent Kinase Assay was obtained from Promega (Promega Biotech Ibérica, SL). ATP and all other reagents were from Sigma Aldrich (St. Louis, MO). Assay buffer contained 50 mM HEPES (pH 7.5), 1 mM EDTA, 1 mM EGTA, and 15 mM magnesium acetate. […]

[2] = biological target: T1, Human recombinant GSK3β (Homo sapiens, UniProt P49841); assay: GSK3β inhibition enzymatic assay (Kinase-Glo); assay type: biochemical
T1 construct: purchased Millipore (Millipore Ibérica SAU)
T1 sequence (P49841 whole entry): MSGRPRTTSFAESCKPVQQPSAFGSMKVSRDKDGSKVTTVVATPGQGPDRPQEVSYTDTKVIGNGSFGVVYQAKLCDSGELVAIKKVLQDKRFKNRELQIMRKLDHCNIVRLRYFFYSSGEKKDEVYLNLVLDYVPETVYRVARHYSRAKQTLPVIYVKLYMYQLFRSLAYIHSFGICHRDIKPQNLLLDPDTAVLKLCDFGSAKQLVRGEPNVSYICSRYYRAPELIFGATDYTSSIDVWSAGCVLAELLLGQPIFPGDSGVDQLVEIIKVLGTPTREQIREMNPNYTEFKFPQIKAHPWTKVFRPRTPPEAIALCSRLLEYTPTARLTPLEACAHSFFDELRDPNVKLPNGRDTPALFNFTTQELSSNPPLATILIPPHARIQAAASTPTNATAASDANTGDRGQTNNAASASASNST
Method: GSK3β inhibition enzymatic assay. Human recombinant GSK3β and the pre-phosphorylated polypeptide substrate were purchased from Millipore (Millipore Ibérica SAU). Kinase-Glo Luminescent Kinase Assay was obtained from Promega (Promega Biotech Ibérica, SL). ATP and all other reagents were from Sigma Aldrich (St. Louis, MO). Assay buffer contained 50 mM HEPES (pH 7.5), 1 mM EDTA, 1 mM EGTA, and 15 mM magnesium acetate.
Kinase-Glo assays were performed in assay buffer using black 96-well plates. In a typical assay, 10 μL (10 μM) of test compound (dissolved in DMSO) at 1 mM concentration and diluted in advance in assay buffer to the desired concentration) and 10 μL (20 ng) of enzyme were added to each well followed by 20 μL of assay buffer containing 25 μM substrate and 1 μM ATP. The final DMSO concentration […]
After 30 min incubation at 30 °C, the enzymatic reaction was stopped with 40 μL of Kinase-Glo reagent. Glow-type luminescence was recorded after 10 min using a FLUOstar Optima (BMG
Labtechnologies GmbH, Offenburg, Germany) multimode reader. The activity is proportional to the difference of the total and consumed ATP. The inhibitory activities were calculated based on maximal activities measured in the absence of inhibitor. The IC50 was defined as the concentration of each compound that reduces a 50 % the enzymatic activity with respect to that without inhibitors. […]

[3] = biological target: BACE1 (Homo sapiens, UniProt P56817); assay: BACE1 enzymatic assay (FRET); assay type: biochemical; details: for inhibition at 10 µM: read-out: BACE1 enzyme inhibition at 10 μM
Sequence of BACE1 (P56817 46-501): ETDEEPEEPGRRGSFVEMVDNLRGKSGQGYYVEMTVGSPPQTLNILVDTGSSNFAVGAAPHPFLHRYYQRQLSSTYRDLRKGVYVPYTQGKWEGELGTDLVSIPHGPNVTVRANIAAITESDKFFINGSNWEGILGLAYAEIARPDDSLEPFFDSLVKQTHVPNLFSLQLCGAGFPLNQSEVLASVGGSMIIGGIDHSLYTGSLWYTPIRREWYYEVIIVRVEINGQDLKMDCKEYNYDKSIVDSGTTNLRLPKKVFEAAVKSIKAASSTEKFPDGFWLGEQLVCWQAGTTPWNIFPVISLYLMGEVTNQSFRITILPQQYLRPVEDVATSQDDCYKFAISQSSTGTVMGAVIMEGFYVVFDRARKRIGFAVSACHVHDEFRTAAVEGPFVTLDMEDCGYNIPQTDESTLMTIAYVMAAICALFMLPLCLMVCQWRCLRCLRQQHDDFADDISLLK
Method: BACE1 enzymatic assay. BACE1 in vitro assays were carried out using FRET.
μM) carrying the Swedish mutation and containing a rhodamine as a fluorescence donor and a quencher acceptor at each end was used. The intact substrate is weakly fluorescent and becomes highly fluorescent upon enzymatic cleavage.
The assays were conducted in 50 mM sodium acetate buffer, pH 4.5, in a final

[4] = tested on: SK-APP cells; assay: Aβ40 and Aβ42 levels in SK-APP cells (sandwich ELISA); assay type: cell-based, human; details: 10 μM, 48 h treatment
Method: page 35: enzyme concentration (1 U/mL). Inhibitor screening at 10 μM. The mixture was incubated for 60 min at 25 °C under dark conditions and then stopped with 2.5 M sodium acetate. Fluorescence was measured with a FLUOstar Optima (BMG Labtechnologies GmbH, Offenburg, Germany) microplate reader at 545 nm excitation and 585 nm emission. Evaluation of BACE Inhibitors Kinetics. To evaluate the mechanism of BACE1 inhibition of the compounds, substrate-dependent kinetic experiments were performed. BACE activity were measured at five different concentrations substrate (1000 -62,5 μM) in the absence or presence of the select inhibitor at two different concentrations. The results are presented as double reciprocal Lineweaver-Burk plots (1/V vs 1/[S]) Figure S1. Cell culture and treatments. SK-N-MC cells stably expressing the human isoform APP695 (SK-APP cell line […]1) were generated by transfection of SK-N-MC cells with a pCDNA3-APP expression vector, and kindly provided by Dr. MJ Bullido. These cells were cultured in DMEM (Thermo Fisher) medium supplemented with 10% FBS (Thermo Fisher), 1 mM glutamine (Sigma- Aldrich), and 100 unit/ml penicillin (Lonza) and […] streptomycin (Lonza). Cell cultures were maintained in a 5% CO2, humidified atmosphere at 37 °C. SH-SY5Y cells were obtained from the American Type Culture Collection and grown in DMEM media (Gibco), supplemented with 10% foetal bovine serum, and 1% penicillin/streptomycin (Invitrogen). The cells were grown at 37 °C in a humidified 5% CO2 atmosphere. For the treatments, all the compounds were dissolved in dimethyl sulfoxide (DMSO, from Sigma) at an initial stock concentration of 10 mM. […] working solutions were obtained from the dilution of the stock solutions in DMEM media (DMSO control solutions were prepared similarly to the compounds). Okadaic acid (OA, Sigma-Aldrich) was dissolved in DMSO at an initial stock concentration of 60 μM and a 250X working solution was obtained from the dilution of the stock solution in DMEM. All the compounds (250x solutions) were added directly into the wells at the indicated final concentrations for 1 hour before the treatment with OA at a final concentration of 30 nM. DMSO was added at the appropriate concentration to the 34 page 36: control-untreated cells. The cells were maintained in the presence of the OA and the different compounds for 24h. Measurement of cell viability. Cell viability assays were carried out using a 3- […] (Sigma-Aldrich) in 96-well cell culture plates. All cells were then incubated with a 0.5 mg/ml MTT solution (Sigma-Aldrich) at 37 °C for 4 h and then with cell lysis […] The absorbance values were determined at 590 nm. Cell viability was expressed as a percent of OD of control cells, the value of which was defined as 100%. Cell viability in SH-SY5Y were carried out following the same procedure but seeding the cells in 24 well multiplates. Absorbance was measured using a Varioskan Flash multiplate reader (Thermo Scientific) at test 550 nm and reference 664 nm wave-lengths. Compound concentration for SK-APP line was 10 μM and for the SH-SY5Y was 1 and 5 μM. Immunoassays. Levels of Aβ40 and Aβ42 were quantified by sandwich ELISAs (Wako, Osaka, Japan) from cellular lysates and conditioned media collected. CNS penetration: in vitro PAMPA-BBB test. Prediction of the brain penetration was evaluated using a parallel artificial membrane permeability assay (PAMPA).1 Nine quality control compounds (mentioned below) of know BBB permeability were included in each experiment to validate the analysis set.2 Commercial drugs […] dissolved in 250 μL of DMSO (Sigma-Aldrich). 25 μL of these compound stock solutions were taken and 225 μL of DMSO and 4750 μL of PBS pH 7.4 buffer were added to reach 5% of DMSO concentration in the experiment and a final […] Compounds to be determined their ability to pass the brain barrier (0.5-1 mg) were dissolved in 250 μL of DMSO and 4750 μL of PBS pH 7.4 was carefully added to afford a final […]

[5] = tested on: SH-SY5Y cells; assay: Okadaic acid-induced cell death model, viability of SH-SY5Y cells; assay type: cell-based, human; details: OA 30 nM, 24 h, compound 1 and 5 µM
Method: (§1) page 35: enzyme concentration (1 U/mL). Inhibitor screening at 10 μM. The mixture was incubated for 60 min at 25 °C under dark conditions and then stopped with 2.5 M sodium acetate. Fluorescence was measured with a FLUOstar Optima (BMG Labtechnologies GmbH, Offenburg, Germany) microplate reader at 545 nm excitation and 585 nm emission. Evaluation of BACE Inhibitors Kinetics. To evaluate the mechanism of BACE1 inhibition of the compounds, substrate-dependent kinetic experiments were performed. BACE activity were measured at five different concentrations substrate (1000 -62,5 μM) in the absence or presence of the select inhibitor at two different concentrations. The results are presented as double reciprocal Lineweaver-Burk plots (1/V vs 1/[S]) Figure S1. Cell culture and treatments. […] The absorbance values were determined at 590 nm. Cell viability was expressed as a percent of OD of control cells, the value of which was defined as 100%. […] Absorbance was measured using a Varioskan Flash multiplate reader (Thermo Scientific) at test 550 nm and reference 664 nm wave-lengths. […] Levels of Aβ40 and Aβ42 were quantified by sandwich ELISAs (Wako, Osaka, Japan) from cellular lysates and conditioned media collected. […] Compounds to be determined their ability to pass the brain barrier (0.5-1 mg) were dissolved in 250 μL of DMSO and 4750 μL of PBS pH 7.4 was carefully added to afford a final […]

[6] = PAMPA-BBB test; assay type: in vitro ADME; details: for Papp at 2.5 h: read-out: Pe exp; for Solubility in the conditions of the PAMPA experiment: PBS pH 7.4 with 5% DMSO
Method: dissolved in 250 µL of DMSO (Sigma-Aldrich). 25 µL of these compound stock
solutions were taken and 225 µL of DMSO and 4750 µL of PBS pH 7.4 buffer
compound concentration in the range of 0.2 to 1.1 mM. Compounds to be
µL of DMSO and 4750 µL of PBS pH 7.4 was carefully added to afford a final
compound concentration in the range of 0.2 to 1.1 mM. Solutions were filtered
using filter PDVF membrane units (diameter 30 mm, pore size 0.45 μm, Symta).
10 µL of each solution were taken and diluted 10-fold with PBS/DMSO (95/5) for
HPLC-MS analysis. The acceptor 96-well plate (Multiscreen®, catalog no.
MAMCS9610, Millipore) was filled with 180 µL of PBS/DMSO (95/5). The donor
96-well plate (Multiscreen® IP Sterile Plate PDVF membrane, pore size is 0.45
M, catalog no. MAIPS4510, Millipore) was coated with 4 µL 20 mg·mL-1 of
for 5 min and then 180 µL of each compound solution was added. Then the donor
plate was put on the acceptor plate and kept for 2.5 h at room temperature. After
incubation, samples were collected from the acceptor plate and diluted 10-fold
with PBS/DMSO (95/5) for HPLC-MS analysis and compared to HPLC-MS of
initial solutions. Absorbance peak of each compound was determined by MS
detection and was used to calculate the concentration of compounds and
Every sample was analysed in two independent
runs. HPLC-MS was performed using a HPLC-MS equipment from Thermo
Fisher coupled to a Finnigan TM LXQ TM detector. Each compound was
analysed using a Sunfire column C18, 3.5 μm (50 mm x 4.6 mm) and acetonitrile
and Milli-Q water (with 0.1% formic acid) as mobile phase. The standard gradient

[7] = biological target: T2, LRRK2 (Homo sapiens, UniProt Q5S007); assay: LRRK2 inhibition enzymatic assay (Adapta, ThermoFisher); assay type: biochemical; details: for inhibition at 10 µM: read-out: LRRK2 enzyme inhibition at 10 μM
T2 construct: purchased ThermoFisher (assay run by the company)
T2 sequence (Q5S007 whole entry): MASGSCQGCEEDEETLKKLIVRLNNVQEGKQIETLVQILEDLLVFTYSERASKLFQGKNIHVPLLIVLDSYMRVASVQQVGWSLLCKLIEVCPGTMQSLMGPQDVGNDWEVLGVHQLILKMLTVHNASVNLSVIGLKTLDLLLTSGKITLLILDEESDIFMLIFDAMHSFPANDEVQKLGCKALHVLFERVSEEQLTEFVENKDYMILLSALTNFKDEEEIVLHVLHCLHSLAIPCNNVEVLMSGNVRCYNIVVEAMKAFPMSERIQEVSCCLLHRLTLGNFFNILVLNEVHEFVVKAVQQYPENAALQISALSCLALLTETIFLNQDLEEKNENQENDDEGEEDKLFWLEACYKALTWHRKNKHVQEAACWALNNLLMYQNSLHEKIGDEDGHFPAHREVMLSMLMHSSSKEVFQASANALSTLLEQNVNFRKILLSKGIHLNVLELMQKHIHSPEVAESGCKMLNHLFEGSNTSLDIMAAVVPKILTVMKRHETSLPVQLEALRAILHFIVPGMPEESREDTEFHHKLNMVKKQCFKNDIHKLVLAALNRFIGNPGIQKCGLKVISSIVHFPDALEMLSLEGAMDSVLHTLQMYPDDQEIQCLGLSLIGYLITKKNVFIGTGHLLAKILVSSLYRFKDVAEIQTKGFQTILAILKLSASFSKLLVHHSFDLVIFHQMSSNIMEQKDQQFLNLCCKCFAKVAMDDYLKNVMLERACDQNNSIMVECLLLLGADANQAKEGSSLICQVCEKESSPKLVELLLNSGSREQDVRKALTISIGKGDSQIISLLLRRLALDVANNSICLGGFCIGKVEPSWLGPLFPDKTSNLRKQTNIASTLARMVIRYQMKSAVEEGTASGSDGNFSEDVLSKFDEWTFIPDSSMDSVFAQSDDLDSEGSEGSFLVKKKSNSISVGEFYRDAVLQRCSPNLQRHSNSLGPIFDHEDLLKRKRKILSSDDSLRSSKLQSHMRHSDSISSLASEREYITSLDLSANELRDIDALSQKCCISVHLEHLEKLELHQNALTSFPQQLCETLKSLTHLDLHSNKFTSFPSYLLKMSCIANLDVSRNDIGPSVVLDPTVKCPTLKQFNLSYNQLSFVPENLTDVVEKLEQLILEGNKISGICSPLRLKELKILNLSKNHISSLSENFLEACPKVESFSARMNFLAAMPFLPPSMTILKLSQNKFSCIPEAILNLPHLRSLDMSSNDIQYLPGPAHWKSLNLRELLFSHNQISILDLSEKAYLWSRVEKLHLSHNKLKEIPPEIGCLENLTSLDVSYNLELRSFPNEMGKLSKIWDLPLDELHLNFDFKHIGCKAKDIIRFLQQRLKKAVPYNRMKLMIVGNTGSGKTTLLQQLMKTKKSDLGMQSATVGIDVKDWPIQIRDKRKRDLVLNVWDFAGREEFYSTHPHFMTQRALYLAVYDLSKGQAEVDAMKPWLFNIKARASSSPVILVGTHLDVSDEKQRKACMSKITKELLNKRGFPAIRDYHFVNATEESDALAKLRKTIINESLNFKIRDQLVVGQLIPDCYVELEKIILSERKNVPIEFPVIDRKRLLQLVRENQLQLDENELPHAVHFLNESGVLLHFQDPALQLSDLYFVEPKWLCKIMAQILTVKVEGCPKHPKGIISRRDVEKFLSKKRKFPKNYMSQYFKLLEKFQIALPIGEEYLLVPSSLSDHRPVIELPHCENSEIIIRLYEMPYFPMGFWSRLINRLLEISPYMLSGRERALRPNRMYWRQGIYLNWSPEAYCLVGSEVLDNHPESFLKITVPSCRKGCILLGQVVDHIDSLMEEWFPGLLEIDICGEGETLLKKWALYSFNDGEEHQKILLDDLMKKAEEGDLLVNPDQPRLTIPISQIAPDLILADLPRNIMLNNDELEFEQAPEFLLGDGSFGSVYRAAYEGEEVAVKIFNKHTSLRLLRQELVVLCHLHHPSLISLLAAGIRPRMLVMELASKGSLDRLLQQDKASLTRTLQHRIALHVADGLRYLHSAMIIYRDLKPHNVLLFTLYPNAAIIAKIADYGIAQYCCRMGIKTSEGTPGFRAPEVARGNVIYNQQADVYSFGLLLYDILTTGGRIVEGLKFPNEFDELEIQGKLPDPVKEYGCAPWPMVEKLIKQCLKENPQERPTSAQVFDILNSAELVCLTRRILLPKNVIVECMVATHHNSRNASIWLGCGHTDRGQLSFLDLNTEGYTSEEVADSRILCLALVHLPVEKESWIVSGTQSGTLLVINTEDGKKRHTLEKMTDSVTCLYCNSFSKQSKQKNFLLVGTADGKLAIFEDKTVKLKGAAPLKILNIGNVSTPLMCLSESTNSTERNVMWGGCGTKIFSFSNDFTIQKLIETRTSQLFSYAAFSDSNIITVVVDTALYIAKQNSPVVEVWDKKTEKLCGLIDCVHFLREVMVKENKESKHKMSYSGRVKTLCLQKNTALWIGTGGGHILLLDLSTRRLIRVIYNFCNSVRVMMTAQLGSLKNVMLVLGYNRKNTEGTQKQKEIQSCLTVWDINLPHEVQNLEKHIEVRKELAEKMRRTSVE

[8] = tested on: SK-APP cells; assay: Cell viability (MTT) in SK-APP cells; assay type: cell-based, human; details: 10 μM, 48 hours
Method: as §1

[9] = PAMPA-BBB, PBS pH 7.4/DMSO 95/5, 2.5 h, room temperature

Sequence of CK1δ (P48730 whole entry): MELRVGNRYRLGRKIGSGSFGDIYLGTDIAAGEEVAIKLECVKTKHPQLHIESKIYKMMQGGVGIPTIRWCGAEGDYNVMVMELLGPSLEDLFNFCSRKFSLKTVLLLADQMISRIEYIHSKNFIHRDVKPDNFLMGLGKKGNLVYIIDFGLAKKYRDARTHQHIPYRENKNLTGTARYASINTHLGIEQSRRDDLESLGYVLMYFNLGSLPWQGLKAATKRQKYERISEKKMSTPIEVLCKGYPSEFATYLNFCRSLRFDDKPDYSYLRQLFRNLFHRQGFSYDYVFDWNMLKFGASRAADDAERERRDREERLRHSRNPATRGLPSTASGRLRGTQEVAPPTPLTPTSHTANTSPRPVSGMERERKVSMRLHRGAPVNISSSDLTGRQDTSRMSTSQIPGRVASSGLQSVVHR

Row | Structure (SMILES) | IC50 [1] [µM] | inhibition at 10 µM [3] [%] | CNS prediction ([6]; PAMPA-BBB) | Papp at 2.5 h [6, 9] [×10⁻⁶ cm/s] | IC50 [7] [µM] | IC50 [3] [µM] | also measured
1 | CCn1sc(=O)n(Cc2cn(Cc3ccc(CC(=O)Nc4nc5ccccc5s4)cc3)nn2)c1=O [compound 15] | 1.25 ± 0.21 | 30 | CNS+ (CNS+ (green) for compounds with Pe >3.20×10^−6 cm s^−1) | 5.08 ± 0.63 | – | – | IC50 [2]: 3.85 ± 0.32 µM; Aβ40 levels in cellular lysates [4]: decrease; Aβ40 levels in extracellular fluid [4]: decrease; Aβ42 levels in cellular lysates (intracellular) [4]: unchanged; Aβ42 levels in extracellular fluid [4]: significant decrease; Neuroprotection against okadaic acid (OA) toxicity [5]: rescue from the toxic effect of OA
2 | O=C(Cc1ccc(Cn2cc(COc3ccc(/N=C4\C(=O)Nc5ccccc54)cc3)nn2)cc1)Nc1nc2ccccc2s1 [compound 16] | 6.47 ± 0.68 | – | CNS+/CNS- (CNS+/CNS‐ (yellow) for compounds with Pe between both values) | 3.07 ± 0.25 | 13.5 ± 5.23 | 7.24 ± 0.38 | Cell viability of SK-APP cells [8]: significant decrease
3 | O=C(Cc1ccc(Cn2cc(COc3ccc(C(=O)Nc4nc5ccccc5s4)cc3)nn2)cc1)Nc1nc2ccccc2s1 [compound 17] | – | – | – | – | 7.09 ± 2.22 | 2.51 ± 0.43 | inhibition at 10 µM [1]: 26%; Cell viability of SK-APP cells [8]: significant decrease; Solubility in the conditions of the PAMPA experiment [6]: insoluble
4 | O=C(Cc1ccc(OCc2cn(Cc3ccc(C(=O)Nc4nc5ccccc5s4)cc3)nn2)cc1)Nc1nc2ccc(C(F)(F)F)cc2s1 [compound 28] | 0.4 ± 0.06 | – | CNS- (CNS‐ (red) for compounds with Pe <1.88×10^−6 cm s^−1) | 0.65 ± 0.18 | 0.71 ± 0.26 | 7.21 ± 0.35 | –
5 | COc1ccc2nc(NC(=O)Cc3ccc(OCc4cn(CCc5ccc(C(=O)Nc6nc7ccccc7s6)cc5)nn4)cc3)sc2c1 [compound 29] | 12.6 ± 0.7 | – | CNS- (CNS‐ (red) for compounds with Pe <1.88×10^−6 cm s^−1) | – | 0.44 ± 0.1 | 11 ± 1.36 | Pe exp [6, 9]: 0 10-6 cm s-1
6 | O=C(Cc1ccc(OCc2cn(CCc3ccc(C(=O)Nc4nc5ccccc5s4)cc3)nn2)cc1)Nc1nc2ccccc2s1 [compound 30] | – | – | CNS+ (CNS+ (green) for compounds with Pe >3.20×10^−6 cm s^−1) | 3.58 ± 0.12 | 3.19 ± 1.01 | 8.57 ± 0.45 | inhibition at 10 µM [1]: 30%; melting point: 239 to 240 °C
7 | CCOC(=O)c1sc(NC(=O)Cc2ccc(OCc3cn(Cc4ccc(CC(=O)Nc5nc6ccccc6s5)cc4)nn3)cc2)nc1C [compound 31] | 5.4 ± 0.91 | – | – | – | – | 6.76 ± 0.61 | inhibition at 10 µM ([2]; read-out: GSK3β enzyme inhibition at 10 μM): 26%; Solubility in the conditions of the PAMPA experiment [6]: insoluble
8 | O=C1Nc2ccccc2/C1=N/c1ccc(OCc2cn(Cc3ccc(C(=O)Nc4nc5ccccc5s4)cc3)nn2)cc1 [compound 32] | – | < 20 | – | – | – | – | inhibition at 10 µM [7]: 54%
9 | O=C(Nc1nc2ccccc2s1)c1ccc(CCn2cc(COc3ccc(C(=O)Nc4nc5ccccc5s4)cc3)nn2)cc1 [compound 33] | – | < 20 | – | – | – | – | inhibition at 10 µM [7]: 98%
